From the supplement of paper PMC6315032

Assays:
Assay in all cases: apparent dissociation constant (pKDapp, Kinobeads competition, Cheng-Prusoff corrected) (-log10 M); higher = tighter binding
ACVR2A = ACVR2A (UniProt P27037); settings: affinity matrix / lysate: Kinobeads, mixed HEK293/K-562/placenta lysate
ATM = ATM (UniProt Q13315); settings: affinity matrix / lysate: Lipid Kinobeads, mixed HeLa/Jurkat/K-562 lysate
CAMKK1 = CAMKK1 (UniProt Q8N5S9); settings: affinity matrix / lysate: Kinobeads, mixed HEK293/K-562/placenta lysate
CSNK2A1 = CSNK2A1 (UniProt P68400)
EPHA5 = EPHA5 (UniProt P54756); settings: affinity matrix / lysate: Kinobeads, mixed HEK293/K-562/placenta lysate
ERBB4 = ERBB4 (UniProt Q15303); settings: affinity matrix / lysate: Kinobeads, mixed HEK293/K-562/placenta lysate
ERN1 = ERN1 (UniProt O75460); settings: affinity matrix / lysate: Kinobeads, mixed HEK293/K-562/placenta lysate
FER = FER (UniProt P16591); settings: affinity matrix / lysate: Kinobeads, mixed HEK293/K-562/placenta lysate
FRK = FRK (UniProt P42685); settings: affinity matrix / lysate: Kinobeads, mixed HEK293/K-562/placenta lysate
GSK3A = GSK3A (UniProt P49840); settings: affinity matrix / lysate: Kinobeads, mixed HEK293/K-562/placenta lysate
IRAK3 = IRAK3 (UniProt Q9Y616); settings: affinity matrix / lysate: Kinobeads, mixed HEK293/K-562/placenta lysate
IRAK4 = IRAK4 (UniProt Q9NWZ3); settings: affinity matrix / lysate: Kinobeads, mixed HEK293/K-562/placenta lysate
KIAA1804 = KIAA1804 (UniProt Q5TCX8); settings: affinity matrix / lysate: Kinobeads, mixed HEK293/K-562/placenta lysate
KIT = KIT (UniProt P10721); settings: affinity matrix / lysate: Kinobeads, mixed HEK293/K-562/placenta lysate
MAP2K1 = MAP2K1 (UniProt Q02750); settings: affinity matrix / lysate: Kinobeads, mixed HEK293/K-562/placenta lysate
MAP2K6 = MAP2K6 (UniProt P52564); settings: affinity matrix / lysate: Kinobeads, mixed HEK293/K-562/placenta lysate
MAP3K1 = MAP3K1 (UniProt Q13233); settings: affinity matrix / lysate: Kinobeads, mixed HEK293/K-562/placenta lysate
MAP3K4 = MAP3K4 (UniProt Q9Y6R4); settings: affinity matrix / lysate: Kinobeads, mixed HEK293/K-562/placenta lysate
MAP4K2 = MAP4K2 (UniProt Q12851); settings: affinity matrix / lysate: Kinobeads, mixed HEK293/K-562/placenta lysate
MAPK8 = MAPK8 (UniProt P45983); settings: affinity matrix / lysate: Kinobeads, mixed HEK293/K-562/placenta lysate
MAPKAPK3 = MAPKAPK3 (UniProt Q16644); settings: affinity matrix / lysate: Kinobeads, mixed HEK293/K-562/placenta lysate
MKNK1 = MKNK1 (UniProt Q9BUB5); settings: affinity matrix / lysate: Kinobeads, mixed HEK293/K-562/placenta lysate
PIK3CG = PIK3CG (UniProt P48736); settings: affinity matrix / lysate: Lipid Kinobeads, mixed HeLa/Jurkat/K-562 lysate
PKN3 = PKN3 (UniProt Q6P5Z2); settings: affinity matrix / lysate: Kinobeads, mixed HEK293/K-562/placenta lysate
PLK1 = PLK1 (UniProt P53350); settings: affinity matrix / lysate: Kinobeads, mixed HEK293/K-562/placenta lysate
PRKCA = PRKCA (UniProt P17252); settings: affinity matrix / lysate: Kinobeads, mixed HEK293/K-562/placenta lysate
PTK2 = PTK2 (UniProt Q05397); settings: affinity matrix / lysate: Kinobeads, mixed HEK293/K-562/placenta lysate
PTK2B = PTK2B (UniProt Q14289); settings: affinity matrix / lysate: Kinobeads, mixed HEK293/K-562/placenta lysate
SLK = SLK (UniProt Q9H2G2); settings: affinity matrix / lysate: Kinobeads, mixed HEK293/K-562/placenta lysate
TBK1 = TBK1 (UniProt Q9UHD2); settings: affinity matrix / lysate: Kinobeads, mixed HEK293/K-562/placenta lysate
TEK = TEK (UniProt Q02763); settings: affinity matrix / lysate: Kinobeads, mixed HEK293/K-562/placenta lysate
TNK2 = TNK2 (UniProt Q07912); settings: affinity matrix / lysate: Kinobeads, mixed HEK293/K-562/placenta lysate
ZAK = ZAK (UniProt Q9NYL2); settings: affinity matrix / lysate: Kinobeads, mixed HEK293/K-562/placenta lysate
[1] = affinity matrix / lysate: Kinobeads, mixed HEK293/K-562/placenta lysate
[2] = affinity matrix / lysate: Lipid Kinobeads, mixed HeLa/Jurkat/K-562 lysate

CSNK2A1, sequence (P68400 whole entry, looked up): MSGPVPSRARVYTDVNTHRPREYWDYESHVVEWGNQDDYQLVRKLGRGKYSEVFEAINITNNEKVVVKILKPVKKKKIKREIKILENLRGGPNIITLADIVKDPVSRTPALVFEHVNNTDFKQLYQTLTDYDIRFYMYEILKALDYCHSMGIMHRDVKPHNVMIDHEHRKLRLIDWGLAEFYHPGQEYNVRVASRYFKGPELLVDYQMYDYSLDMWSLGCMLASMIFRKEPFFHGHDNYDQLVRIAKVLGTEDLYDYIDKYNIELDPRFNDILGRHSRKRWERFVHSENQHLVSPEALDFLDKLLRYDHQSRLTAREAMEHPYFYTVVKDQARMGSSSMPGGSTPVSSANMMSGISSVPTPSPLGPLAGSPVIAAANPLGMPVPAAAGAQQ
PIK3CG, sequence (P48736 whole entry, looked up): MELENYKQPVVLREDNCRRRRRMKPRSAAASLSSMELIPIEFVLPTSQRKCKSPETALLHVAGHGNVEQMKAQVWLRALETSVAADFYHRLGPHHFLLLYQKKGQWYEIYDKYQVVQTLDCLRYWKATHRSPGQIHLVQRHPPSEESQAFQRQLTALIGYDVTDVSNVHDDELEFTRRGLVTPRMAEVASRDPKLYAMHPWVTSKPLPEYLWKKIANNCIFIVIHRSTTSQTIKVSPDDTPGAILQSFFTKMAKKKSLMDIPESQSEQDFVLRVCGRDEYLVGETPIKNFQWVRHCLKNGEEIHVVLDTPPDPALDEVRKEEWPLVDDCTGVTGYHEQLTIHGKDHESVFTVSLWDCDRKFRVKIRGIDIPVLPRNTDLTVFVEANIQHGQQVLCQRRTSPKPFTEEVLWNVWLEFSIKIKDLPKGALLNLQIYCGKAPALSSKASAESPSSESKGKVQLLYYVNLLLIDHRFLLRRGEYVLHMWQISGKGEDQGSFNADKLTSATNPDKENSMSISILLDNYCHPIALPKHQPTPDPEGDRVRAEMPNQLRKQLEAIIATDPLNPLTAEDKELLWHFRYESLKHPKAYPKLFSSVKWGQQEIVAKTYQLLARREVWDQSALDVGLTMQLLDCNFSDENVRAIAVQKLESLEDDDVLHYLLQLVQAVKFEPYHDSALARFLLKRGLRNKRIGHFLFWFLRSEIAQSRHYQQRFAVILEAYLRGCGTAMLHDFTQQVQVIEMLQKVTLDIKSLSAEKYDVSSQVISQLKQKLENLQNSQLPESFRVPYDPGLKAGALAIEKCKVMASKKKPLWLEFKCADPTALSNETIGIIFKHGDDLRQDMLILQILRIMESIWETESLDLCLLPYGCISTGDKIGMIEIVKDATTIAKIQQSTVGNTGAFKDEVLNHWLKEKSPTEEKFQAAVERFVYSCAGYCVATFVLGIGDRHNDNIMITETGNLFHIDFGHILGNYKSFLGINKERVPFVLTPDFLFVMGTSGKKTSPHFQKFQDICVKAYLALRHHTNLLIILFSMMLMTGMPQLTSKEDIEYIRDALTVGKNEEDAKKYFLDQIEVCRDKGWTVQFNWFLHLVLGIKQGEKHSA
GSK3A, sequence (P49840 whole entry, looked up): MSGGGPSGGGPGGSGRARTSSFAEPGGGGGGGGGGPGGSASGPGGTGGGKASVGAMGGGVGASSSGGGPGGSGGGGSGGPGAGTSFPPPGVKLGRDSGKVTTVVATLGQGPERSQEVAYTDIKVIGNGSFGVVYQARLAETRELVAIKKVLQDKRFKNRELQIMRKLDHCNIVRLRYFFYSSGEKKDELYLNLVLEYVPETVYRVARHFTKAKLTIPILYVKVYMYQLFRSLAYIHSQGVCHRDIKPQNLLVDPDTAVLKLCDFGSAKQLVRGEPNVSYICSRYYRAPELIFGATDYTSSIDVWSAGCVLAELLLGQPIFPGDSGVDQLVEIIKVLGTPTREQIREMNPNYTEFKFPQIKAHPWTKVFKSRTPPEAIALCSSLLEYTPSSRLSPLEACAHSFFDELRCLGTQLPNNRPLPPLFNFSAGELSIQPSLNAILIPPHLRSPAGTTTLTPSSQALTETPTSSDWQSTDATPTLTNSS
FER, sequence (P16591 whole entry, looked up): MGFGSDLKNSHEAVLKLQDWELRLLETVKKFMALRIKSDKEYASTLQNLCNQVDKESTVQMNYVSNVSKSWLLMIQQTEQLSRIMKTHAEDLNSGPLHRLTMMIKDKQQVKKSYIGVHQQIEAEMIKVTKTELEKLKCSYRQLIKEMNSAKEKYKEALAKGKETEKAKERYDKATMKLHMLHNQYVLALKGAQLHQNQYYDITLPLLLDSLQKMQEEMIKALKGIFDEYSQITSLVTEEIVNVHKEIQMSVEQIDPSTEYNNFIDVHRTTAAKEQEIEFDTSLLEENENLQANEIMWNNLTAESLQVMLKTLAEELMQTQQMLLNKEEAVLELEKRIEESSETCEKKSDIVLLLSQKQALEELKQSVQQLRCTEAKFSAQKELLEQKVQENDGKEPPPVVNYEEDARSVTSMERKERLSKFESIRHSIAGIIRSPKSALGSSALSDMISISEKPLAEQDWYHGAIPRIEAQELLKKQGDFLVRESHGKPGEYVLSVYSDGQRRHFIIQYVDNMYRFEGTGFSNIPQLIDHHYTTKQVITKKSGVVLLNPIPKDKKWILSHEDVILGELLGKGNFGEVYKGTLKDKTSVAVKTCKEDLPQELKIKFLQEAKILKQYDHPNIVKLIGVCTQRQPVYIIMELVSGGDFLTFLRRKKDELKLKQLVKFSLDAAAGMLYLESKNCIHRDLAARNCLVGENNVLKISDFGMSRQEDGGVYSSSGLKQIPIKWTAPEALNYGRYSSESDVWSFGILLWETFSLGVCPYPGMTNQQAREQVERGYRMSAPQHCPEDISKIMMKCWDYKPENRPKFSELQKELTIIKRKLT
PKN3, sequence (Q6P5Z2 whole entry, looked up): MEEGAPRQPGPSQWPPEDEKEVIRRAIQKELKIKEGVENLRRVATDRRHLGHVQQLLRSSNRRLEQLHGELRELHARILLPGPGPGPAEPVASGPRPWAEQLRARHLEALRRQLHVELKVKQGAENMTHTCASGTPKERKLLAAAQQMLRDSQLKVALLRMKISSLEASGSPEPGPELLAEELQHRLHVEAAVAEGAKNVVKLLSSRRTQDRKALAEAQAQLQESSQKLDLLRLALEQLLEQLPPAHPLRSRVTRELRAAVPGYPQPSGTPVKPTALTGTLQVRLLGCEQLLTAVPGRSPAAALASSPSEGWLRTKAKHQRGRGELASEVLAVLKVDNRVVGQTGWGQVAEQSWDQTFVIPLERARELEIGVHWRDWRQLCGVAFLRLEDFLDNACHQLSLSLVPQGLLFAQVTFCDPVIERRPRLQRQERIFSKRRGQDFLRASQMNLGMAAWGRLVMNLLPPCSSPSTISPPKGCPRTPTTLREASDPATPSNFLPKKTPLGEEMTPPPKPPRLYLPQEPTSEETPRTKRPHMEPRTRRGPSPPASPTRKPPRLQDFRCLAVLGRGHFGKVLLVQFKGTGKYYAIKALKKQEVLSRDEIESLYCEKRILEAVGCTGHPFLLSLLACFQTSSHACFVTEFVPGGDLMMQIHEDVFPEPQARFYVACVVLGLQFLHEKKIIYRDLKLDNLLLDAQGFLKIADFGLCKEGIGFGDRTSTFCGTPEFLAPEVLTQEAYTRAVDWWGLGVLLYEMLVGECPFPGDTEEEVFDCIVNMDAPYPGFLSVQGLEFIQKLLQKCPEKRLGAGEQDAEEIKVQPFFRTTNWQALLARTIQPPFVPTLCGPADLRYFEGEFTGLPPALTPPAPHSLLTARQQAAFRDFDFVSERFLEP
KIT, sequence (P10721 whole entry): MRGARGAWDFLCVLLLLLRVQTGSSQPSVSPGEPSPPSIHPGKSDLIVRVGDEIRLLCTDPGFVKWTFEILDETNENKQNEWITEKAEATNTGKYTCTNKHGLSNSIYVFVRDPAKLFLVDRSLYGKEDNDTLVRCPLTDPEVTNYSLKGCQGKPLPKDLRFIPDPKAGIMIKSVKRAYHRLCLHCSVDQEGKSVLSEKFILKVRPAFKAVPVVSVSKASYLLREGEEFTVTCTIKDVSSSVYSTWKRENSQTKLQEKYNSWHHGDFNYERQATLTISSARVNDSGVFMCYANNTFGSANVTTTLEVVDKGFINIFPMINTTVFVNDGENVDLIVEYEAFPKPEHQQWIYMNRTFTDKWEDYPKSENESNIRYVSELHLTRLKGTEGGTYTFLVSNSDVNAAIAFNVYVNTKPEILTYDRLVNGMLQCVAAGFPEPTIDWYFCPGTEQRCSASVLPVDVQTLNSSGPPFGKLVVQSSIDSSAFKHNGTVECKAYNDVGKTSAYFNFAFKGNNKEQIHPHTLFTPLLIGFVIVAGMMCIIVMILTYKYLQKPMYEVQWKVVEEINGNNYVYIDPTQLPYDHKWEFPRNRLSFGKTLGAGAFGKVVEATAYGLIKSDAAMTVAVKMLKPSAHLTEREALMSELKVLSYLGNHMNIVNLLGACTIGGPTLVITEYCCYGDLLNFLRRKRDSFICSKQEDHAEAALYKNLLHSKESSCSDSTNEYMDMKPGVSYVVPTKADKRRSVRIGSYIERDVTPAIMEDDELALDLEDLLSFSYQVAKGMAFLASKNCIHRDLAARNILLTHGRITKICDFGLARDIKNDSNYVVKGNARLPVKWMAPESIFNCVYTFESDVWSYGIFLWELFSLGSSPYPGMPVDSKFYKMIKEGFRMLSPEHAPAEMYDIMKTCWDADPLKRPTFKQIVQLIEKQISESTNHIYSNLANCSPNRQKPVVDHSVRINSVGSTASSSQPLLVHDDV
MAPKAPK3, sequence (Q16644 whole entry, looked up): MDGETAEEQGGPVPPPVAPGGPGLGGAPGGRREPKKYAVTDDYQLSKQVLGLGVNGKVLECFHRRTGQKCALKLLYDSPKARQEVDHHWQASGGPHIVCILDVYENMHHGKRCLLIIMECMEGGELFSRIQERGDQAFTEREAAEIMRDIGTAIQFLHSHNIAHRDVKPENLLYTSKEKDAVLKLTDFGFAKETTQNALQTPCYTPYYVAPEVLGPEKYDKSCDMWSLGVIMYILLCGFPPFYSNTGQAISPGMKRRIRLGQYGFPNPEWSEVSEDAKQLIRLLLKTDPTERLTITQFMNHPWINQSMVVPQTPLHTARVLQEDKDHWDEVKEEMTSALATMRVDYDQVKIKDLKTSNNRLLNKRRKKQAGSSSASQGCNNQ

Row | SMILES | apparent dissociation constant (-log10 M) (ACVR2A) | apparent dissociation constant (-log10 M) (ATM) | apparent dissociation constant (-log10 M) (CAMKK1) | apparent dissociation constant (-log10 M) (CSNK2A1; [1]) | apparent dissociation constant (-log10 M) (CSNK2A1; [2]) | apparent dissociation constant (-log10 M) (EPHA5) | apparent dissociation constant (-log10 M) (ERBB4) | apparent dissociation constant (-log10 M) (ERN1) | apparent dissociation constant (-log10 M) (FER) | apparent dissociation constant (-log10 M) (FRK) | apparent dissociation constant (-log10 M) (GSK3A) | apparent dissociation constant (-log10 M) (IRAK3) | apparent dissociation constant (-log10 M) (IRAK4) | apparent dissociation constant (-log10 M) (KIAA1804) | apparent dissociation constant (-log10 M) (KIT) | apparent dissociation constant (-log10 M) (MAP2K1) | apparent dissociation constant (-log10 M) (MAP2K6) | apparent dissociation constant (-log10 M) (MAP3K1) | apparent dissociation constant (-log10 M) (MAP3K4) | apparent dissociation constant (-log10 M) (MAP4K2) | apparent dissociation constant (-log10 M) (MAPK8) | apparent dissociation constant (-log10 M) (MAPKAPK3) | apparent dissociation constant (-log10 M) (MKNK1) | apparent dissociation constant (-log10 M) (PIK3CG) | apparent dissociation constant (-log10 M) (PKN3) | apparent dissociation constant (-log10 M) (PLK1) | apparent dissociation constant (-log10 M) (PRKCA) | apparent dissociation constant (-log10 M) (PTK2) | apparent dissociation constant (-log10 M) (PTK2B) | apparent dissociation constant (-log10 M) (SLK) | apparent dissociation constant (-log10 M) (TBK1) | apparent dissociation constant (-log10 M) (TEK) | apparent dissociation constant (-log10 M) (TNK2) | apparent dissociation constant (-log10 M) (ZAK)
1 | COc1ccc(-c2ccc3c(N4CCOC[C@@H]4C)nc(N4CCOC[C@@H]4C)nc3n2)cc1CO [AZD8055] | < 6 | 6.36 | < 6 | < 6 | < 6 | < 6 | < 6 | < 6 | < 6 | < 6 | < 6 | < 6 | < 6 | < 6 | < 6 | < 6 | < 6 | < 6 | < 6 | < 6 | < 6 | < 6 | < 6 | < 6 | < 6 | < 6 | < 6 | < 6 | < 6 | < 6 | < 6 | < 6 | < 6 | < 6
2 | CCNC(=O)Nc1ccc(-c2nc(N3CCOC[C@@H]3C)c3c(n2)C(C)(C)S(=O)(=O)C3)cc1 [CZ415] | < 6 | < 6 | < 6 | < 6 | < 6 | < 6 | < 6 | < 6 | < 6 | < 6 | < 6 | < 6 | < 6 | < 6 | < 6 | < 6 | < 6 | < 6 | < 6 | < 6 | < 6 | < 6 | < 6 | < 6 | < 6 | < 6 | < 6 | < 6 | < 6 | < 6 | < 6 | < 6 | < 6 | < 6
